In US20240383908A1, “SYNTHESIS AND APPLICATION OF PHOSPHATASE DEGRADER” (HINOVA PHARMACEUTICALS INC., priority 2021, published 2024):

How the values were obtained:
SHP2 protein [1] = target: T1, SHP2 protein (Homo sapiens, UniProt Q06124); experiment: Degradation activity on SHP2 protein in MV-411 cells (Western blot, DC50); format: cell-based; parameters: endogenous in cells; details: MV411 cells, 24 hours, read-out: Degradation activity for differenct cell lines MV411 (DC50)
T1 sequence (Q06124 1-593): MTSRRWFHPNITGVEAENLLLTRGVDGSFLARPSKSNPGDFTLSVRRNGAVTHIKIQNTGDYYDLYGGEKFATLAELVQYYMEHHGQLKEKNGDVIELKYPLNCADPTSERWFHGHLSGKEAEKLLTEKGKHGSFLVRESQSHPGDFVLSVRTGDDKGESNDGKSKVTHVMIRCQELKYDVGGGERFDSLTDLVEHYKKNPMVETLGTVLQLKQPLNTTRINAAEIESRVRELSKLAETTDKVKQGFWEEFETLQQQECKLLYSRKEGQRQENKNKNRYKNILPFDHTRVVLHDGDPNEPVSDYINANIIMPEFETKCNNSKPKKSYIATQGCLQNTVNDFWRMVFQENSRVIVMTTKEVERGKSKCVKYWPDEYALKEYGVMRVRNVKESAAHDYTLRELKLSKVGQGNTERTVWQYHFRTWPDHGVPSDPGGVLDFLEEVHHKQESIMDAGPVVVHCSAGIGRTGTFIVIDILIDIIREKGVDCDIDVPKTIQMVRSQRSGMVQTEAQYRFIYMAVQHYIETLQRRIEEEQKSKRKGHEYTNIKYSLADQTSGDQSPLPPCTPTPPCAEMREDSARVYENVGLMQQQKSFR
In short: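 MV-411 cells (1×10^6 cells/well, IMDM + 10% FBS) were treated 24 h with compound at 0.1-100 nM final, 0.1% DMSO, duplicates. SHP2 measured by Western blot against GAPDH, band density normalised to DMSO control; DC50 from dose-response fit.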

SHP2 protein [2] = target: T1, SHP2 protein; experiment: Degradation activity on SHP2 protein in MIA Paca-2 cells (Western blot, DC50); format: cell-based; parameters: endogenous in cells; host or cells: MIA Paca-2 cells; details: read-out: Degradation activity for differenct cell lines MIA Paca-2 (DC50)
In short: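 Cells were treated 24 h at 37 °C with compound (0.1–100 nM final, 0.1% DMSO). SHP2 was measured by Western blot with GAPDH as loading control, densitometry normalized to DMSO (100%). DC50, the concentration giving 50% degradation, came from a dose-response fit.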

Row | DC50 (SHP2 protein [1]) | DC50 (SHP2 protein [2]) | Structure (SMILES)
1 | < 0.1 µM | < 0.1 µM | CC1(N)CCN(c2cnc(Sc3cccc(NC(=O)CCCCCCCCN4CCN(c5ncc(C(=O)NCc6ccc7c(c6)CN(C6CCC(=O)NC6=O)C7=O)cn5)CC4)c3)cn2)CC1 (stereo not shown) [Compound 48, 2-(4-(9-((3-((5-(4-amino-4-methylpyridin-1-yl)pyrazin-2-yl)thio)phenyl)amino)-9-oxononyl)piperazin-1-yl)-N-((2-(2,6-dioxopiperidin-3-yl)-1-oxoisoindol-5-yl)methyl)pyrimidine-5-formamide]
2 | < 0.1 µM | > 1 µM | CC1(N)CCN(c2cnc(Sc3cccc(NC(=O)/C=C/C(=O)N4CCN(CCCCCCCCC(=O)NCc5ccc6c(c5)CN(C5CCC(=O)NC5=O)C6=O)CC4)c3)cn2)CC1 (stereo not shown) [Compound 55]
3 | < 0.1 µM | < 0.1 µM | CC1(N)CCN(c2cnc(Sc3cccc(NC(=O)CCCCCCCOC4CCN(c5ccc(C(=O)NCc6ccc7c(c6)CN(C6CCC(=O)NC6=O)C7=O)nn5)CC4F)c3)cn2)CC1 (stereo not shown) [Compound 146]
4 | 0.1 to 1 µM | > 1 µM | CC1(N)CCN(c2cnc(Sc3cccc(NC(=O)CCCCCCN4CC5(CCN(C6CC(C(=O)NCc7ccc8c(c7)CN(C7CCC(=O)NC7=O)C8=O)C6)C5)C4)c3)cn2)CC1 (stereo not shown) [Compound 160]
5 | < 0.1 µM | > 1 µM | CC1(N)CCN(c2cnc(Sc3cccc(NC(=O)CCCCCCN4CC5(CCN(c6cnc(C(=O)NCc7ccc8c(c7)CN(C7CCC(=O)NC7=O)C8=O)cn6)C5)C4)c3)cn2)CC1 (stereo not shown) [Compound 179]
6 | < 0.1 µM | > 1 µM | CC1(N)CCN(c2cnc(Sc3cccc(NC(=O)CCCCCCOC4CC5CN(c6ccc(C(=O)NCc7ccc8c(c7)CN(C7CCC(=O)NC7=O)C8=O)nn6)CC5C4)c3)cn2)CC1 (stereo not shown) [Compound 183]
7 | < 0.1 µM | 0.1 to 1 µM | CC1(N)CCN(c2cnc(Sc3cccc(NC(=O)CCCCCCCCCCNc4ccc(C(=O)NCc5ccc6c(c5)CN(C5CCC(=O)NC5=O)C6=O)nn4)c3)cn2)CC1 (stereo not shown) [Compound 185]
8 | < 0.1 µM | > 1 µM | CC1(N)CCN(c2cnc(Sc3cccc(NC(=O)CCCCCOc4ccc(C5CC5C(=O)NCc5ccc6c(c5)C(=O)N(C5CCC(=O)NC5=O)C6)cc4)c3)cn2)CC1 (stereo not shown) [Compound 189, 2-(4-((6-((3-((5-(4-amino-4-methylpyridin-1-yl)pyrazin-2-yl)thio)phenyl)amino)-6-oxohexyl)oxy)phenyl)-N-((2-(2,6-dioxopiperidin-3-yl)-3-oxoisoindol-5-yl)methyl)cyclopropane-1-formamide]
9 | 0.1 to 1 µM | > 1 µM | NC1(CO)CCN(c2cnc(Sc3cccc(NC(=O)CCCCCCN4CC5(CCN(c6ccc(C(=O)NCc7ccc8c(c7)CN(C7CCC(=O)NC7=O)C8=O)nc6)C5)C4)c3)cn2)CC1 (stereo not shown) [Compound 190]
10 | < 0.1 µM | > 1 µM | CC1(N)CCN(c2cnc(Sc3cccc(NC(=O)CCCCCOc4ccc(C5CCC(C(=O)NCc6ccc7c(c6)CN(C6CCC(=O)NC6=O)C7=O)CC5)cc4)c3)cn2)CC1 (stereo not shown) [Compound 192]
11 | < 0.1 µM | < 0.1 µM | COCC1(N)CCN(c2cnc(Sc3cccc(NC(=O)CCCCCCN4CC5(CCN(c6ccc(C(=O)NCc7ccc8c(c7)CN(C7CCC(=O)NC7=O)C8=O)nn6)C5)C4)c3)cn2)CC1 (stereo not shown) [Compound 199]
12 | < 0.1 µM | > 1 µM | CC1(N)CCN(c2cnc(Sc3cccc(NC(=O)CCCCCC=C4CC5(CCN(c6ccc(C(=O)NCc7ccc8c(c7)CN(C7CCC(=O)NC7=O)C8=O)nn6)CC5)C4)c3)cn2)CC1 (stereo not shown) [Compound 209]

Continued, compound first:

Row | Structure (SMILES) | DC50 (SHP2 protein [1]) | DC50 (SHP2 protein [2])
13 | CC1(N)CCN(c2cnc(Sc3ccc(NC(=O)CCCCCCCCOC4CN(c5ncc(C(=O)NCc6ccc7c(c6)CN(C6CCC(=O)NC6=O)C7=O)cn5)C4)cc3)cn2)CC1 (stereo not shown) [Compound 74] | < 0.1 µM | 0.1 to 1 µM
14 | Cc1ncsc1-c1ccc([C@H](C)NC(=O)[C@@H]2C[C@@H](O)CN2C(=O)[C@@H](NC(=O)c2cnc(N3CCC4(CN(CCCCCCC(=O)Nc5cccc(Sc6cnc(N7CCC(C)(N)CC7)cn6)c5)C4)C3)nc2)C(C)(C)C)cc1 [Compound 90] | < 0.1 µM | < 0.1 µM
15 | CC1(N)CCN(c2cnc(Sc3cccc(NC(=O)CCCCCCN4CC5(CCN(c6ncc(C(=O)NCc7ccc8c(c7)CN(C7CCC(=O)NC7=O)C8=O)cn6)C5)C4)c3)cn2)CC1 (stereo not shown) [Compound 91] | < 0.1 µM | 0.1 to 1 µM
16 | Cc1ncsc1-c1ccc([C@H](C)NC(=O)[C@@H]2C[C@@H](O)CN2C(=O)[C@@H](NC(=O)c2ccc(N3CCC4(CN(CCC(=O)Nc5cccc(Sc6cnc(N7CCC(C)(N)CC7)cn6)c5)C4)C3)nn2)C(C)(C)C)cc1 [Compound 98] | < 0.1 µM | 0.1 to 1 µM
17 | CC1(N)CCN(c2cnc(Sc3cccc(NC(=O)CCCCCCCO[C@H]4CCN(c5ccc(C(=O)NCc6ccc7c(c6)CN(C6CCC(=O)NC6=O)C7=O)nn5)C4)c3)cn2)CC1 (stereo partly shown) [Compound 102] | < 0.1 µM | < 0.1 µM
18 | CC1(N)CCN(c2cnc(Sc3cccc(NC(=O)CCCCCCCO[C@@H]4CCN(c5ncc(C(=O)NCc6ccc7c(c6)CN(C6CCC(=O)NC6=O)C7=O)cn5)C4)c3)cn2)CC1 (stereo partly shown) [Compound 104] | < 0.1 µM | > 1 µM
19 | Cc1ncsc1-c1ccc([C@H](C)NC(=O)[C@@H]2C[C@@H](O)CN2C(=O)[C@@H](NC(=O)c2ccc(N3CCC4(CN(CCCCCCCC(=O)Nc5cccc(Sc6cnc(N7CCC(C)(N)CC7)cn6)c5)C4)C3)nn2)C(C)(C)C)cc1 [Compound 105] | < 0.1 µM | 0.1 to 1 µM
20 | CC1(N)CCN(c2cnc(Sc3cccc(NC(=O)CCCCCCCN4CC5(CCN(c6ccc(COc7cccc8c7CN(C7CCC(=O)NC7=O)C8=O)nn6)C5)C4)c3)cn2)CC1 (stereo not shown) [Compound 107] | < 0.1 µM | > 1 µM
21 | O=C1CCC(N2Cc3cc(CNC(=O)c4ccc(N5CCC6(CN(CCCCCCC(=O)Nc7cccc(Sc8cnc(N9CCC%10(CCNC%10)CC9)cn8)c7)C6)C5)nn4)ccc3C2=O)C(=O)N1 (stereo not shown) [Compound 112] | < 0.1 µM | > 1 µM
22 | NC1CCN(c2cnc(Sc3cccc(NC(=O)CCCCN4CC5(CCN(c6ccc(C(=O)NCc7ccc8c(c7)CN(C7CCC(=O)NC7=O)C8=O)nn6)C5)C4)c3)cn2)CC1F (stereo not shown) [Compound 140] | > 1 µM | > 1 µM
23 | CC1(N)CCN(c2cnc(Sc3cccc(NC(=O)CCCCCCN4CC5(CCN(c6ccc(C(=O)NCc7ccc8c(c7)CN(C7CCC(=O)NC7=O)C8=O)cn6)C5)C4)c3)cn2)CC1 (stereo not shown) [Compound 155] | < 0.1 µM | < 0.1 µM
24 | CC1(N)CCN(c2cnc(Sc3cccc(NC(=O)CCCCCCN4CC5(CCN(c6ccc(C#Cc7ccc8c(c7)CN(C7CCC(=O)NC7=O)C8=O)nn6)C5)C4)c3)cn2)CC1 (stereo not shown) [Compound 157] | < 0.1 µM | > 1 µM
25 | CC1(N)CCN(c2cnc(Sc3cccc(NC(=O)CCCCCOC4CC5(CCN(c6ccc(C(=O)NCc7ccc8c(c7)CN(C7CCC(=O)NC7=O)C8=O)nn6)C5)C4)c3)cn2)CC1 (stereo not shown) [Compound 166] | < 0.1 µM | < 0.1 µM
26 | CC1(N)CCN(c2cnc(Sc3cccc(NC(=O)CCCCCCN4CC5(CCN(c6ncc(C(=O)NCc7ccc8c(c7)CN(C7CCC(=O)NC7=O)C8=O)cc6C(F)(F)F)C5)C4)c3)cn2)CC1 (stereo not shown) [Compound 170] | < 0.1 µM | 0.1 to 1 µM
27 | CC1(N)CCN(c2cnc(Sc3cccc(NC(=O)CCCCCCCO[C@@H]4CN(c5ccc(C(=O)NCc6ccc7c(c6)CN(C6CCC(=O)NC6=O)C7=O)nn5)CC4(F)F)c3)cn2)CC1 (stereo partly shown) [Compound 178] | < 0.1 µM | < 0.1 µM
28 | CC1(N)CCN(c2cnc(Sc3cccc(NC(=O)CCCCCOc4ccc(C5CCC(C(=O)NCc6ccc7c(c6)CN(C6CCC(=O)NC6=O)C7=O)CC5)cc4)c3)cn2)CC1 (stereo not shown) [Compound 191] | < 0.1 µM | > 1 µM
29 | Cc1cc(N2CCC3(CN(CCCCCCC(=O)Nc4cccc(Sc5cnc(N6CCC(N)(CO)CC6)cn5)c4)C3)C2)cnc1C(=O)NCc1ccc2c(c1)CN(C1CCC(=O)NC1=O)C2=O (stereo not shown) [Compound 208] | < 0.1 µM | > 1 µM
30 | NC1(CO)CCN(c2cnc(Sc3cccc(NC(=O)CCCCCC=C4CC5(CCN(c6ccc(C(=O)NCc7ccc8c(c7)CN(C7CCC(=O)NC7=O)C8=O)nn6)CC5)C4)c3)cn2)CC1 (stereo not shown) [Compound 210] | < 0.1 µM | 
31 | COc1nc(N2CCC3(CN(CCCCCCC(=O)Nc4cccc(Sc5cnc(N6CCC(C)(N)CC6)cn5)c4)C3)C2)ccc1C(=O)NCc1ccc2c(c1)CN(C1CCC(=O)NC1=O)C2=O (stereo not shown) [Compound 211] | < 0.1 µM | < 0.1 µM
